# Assay results published in patent EP3431484A1, “A FLUORESCENT CYCLIC DINUCLEOTIDE AND ITS USE IN METHODS OF IDENTIFYING SUBSTANCES HAVING AN ABILITY TO MODULATE THE CGAS/STING PATHWAY” (Ludwig-Maximilians-Universität München, priority 2017, dated 2019).
# Tested on: human truncated STING (hSTING^cd), cytosolic domain aa 139-379, R220H+H232R variant
# Conditions: 200 µM hSTING^cd, 0-150 µM competitor; Figure 10d
# Method: The quenching effect of STING on 2'3'fGAMP can be further used to search and compare STING-binding compounds. […] After second round of incubation for 15 min the samples were measured in 96-well black non-binding PS plates (Greiner Bio-One) on Tecan infinite M1000 (λex=305 nm, λem=363 nm, gain 140, settle time 10ms) at 25°C.
structure (smiles),measurement,value
Nc1nc2c(ncn2[C@@H]2O[C@@H]3COP(=O)(O)O[C@H]4[C@@H](O)[C@H](n5cnc6c(=O)[nH]c(N)nc65)O[C@@H]4COP(=O)(O)O[C@H]3[C@H]2O)c(=O)[nH]1 [c-di-GMP],"affinity towards STING, compared by slope of fluorescence increase (s1, s2)",lower affinity
